Here are results for 26 molecules from ChEMBL document CHEMBL1124059, “Atypical antipsychotic agents: patterns of activity in a series of 3-substituted 2-pyridinyl-1-piperazine derivatives” (J Med Chem, 1988).

One may read the IC50 as the concentration that inhibits the measured activity by half. One may read the ED50 as the dose that gives a 50% effect, or the effect in half of the subjects.

The structures appear in SMILES notation. The source made the active and inactive calls. The rule behind the calls is not given here. Some results are limits rather than exact numbers.

The target in one experiment is D(2) dopamine receptor (Rattus norvegicus, UniProt P61169). The experiment in a line: Ability to inhibit [3H]spiperone binding to Dopamine receptor D2 in rat corpus striatum. Format: tissue-based.
Chain of D(2) dopamine receptor (P61169 whole entry): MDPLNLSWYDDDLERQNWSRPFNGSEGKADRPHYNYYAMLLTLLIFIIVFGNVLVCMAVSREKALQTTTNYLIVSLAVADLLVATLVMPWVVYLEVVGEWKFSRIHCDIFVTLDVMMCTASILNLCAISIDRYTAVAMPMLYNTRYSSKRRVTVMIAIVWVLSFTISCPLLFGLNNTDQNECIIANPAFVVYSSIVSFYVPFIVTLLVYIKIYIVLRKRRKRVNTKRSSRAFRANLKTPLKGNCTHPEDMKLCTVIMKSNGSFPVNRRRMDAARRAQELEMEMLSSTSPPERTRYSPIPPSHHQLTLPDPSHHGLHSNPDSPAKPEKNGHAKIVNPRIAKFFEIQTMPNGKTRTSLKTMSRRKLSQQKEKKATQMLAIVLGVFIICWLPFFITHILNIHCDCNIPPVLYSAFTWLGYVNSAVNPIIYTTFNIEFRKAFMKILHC
Experiment [1] concerns the target T1, Adrenergic receptor alpha-1 (Rattus norvegicus, UniProt P15823+P23944+P43140).
T1 sequence (P15823 whole entry): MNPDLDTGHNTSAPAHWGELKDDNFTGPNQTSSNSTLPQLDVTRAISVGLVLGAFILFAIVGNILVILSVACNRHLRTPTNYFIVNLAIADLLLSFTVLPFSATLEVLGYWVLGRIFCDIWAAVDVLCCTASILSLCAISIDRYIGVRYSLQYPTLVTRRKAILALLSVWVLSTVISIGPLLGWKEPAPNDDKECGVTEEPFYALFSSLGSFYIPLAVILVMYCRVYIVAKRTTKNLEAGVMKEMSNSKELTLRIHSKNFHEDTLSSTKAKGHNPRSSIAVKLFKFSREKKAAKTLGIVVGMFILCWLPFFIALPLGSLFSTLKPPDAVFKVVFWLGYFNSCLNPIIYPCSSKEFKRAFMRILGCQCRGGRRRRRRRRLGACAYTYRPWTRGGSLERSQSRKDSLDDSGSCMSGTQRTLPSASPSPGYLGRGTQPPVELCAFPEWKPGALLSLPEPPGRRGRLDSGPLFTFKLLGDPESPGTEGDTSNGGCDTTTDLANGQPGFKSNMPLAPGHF
T1 sequence (P23944 whole entry): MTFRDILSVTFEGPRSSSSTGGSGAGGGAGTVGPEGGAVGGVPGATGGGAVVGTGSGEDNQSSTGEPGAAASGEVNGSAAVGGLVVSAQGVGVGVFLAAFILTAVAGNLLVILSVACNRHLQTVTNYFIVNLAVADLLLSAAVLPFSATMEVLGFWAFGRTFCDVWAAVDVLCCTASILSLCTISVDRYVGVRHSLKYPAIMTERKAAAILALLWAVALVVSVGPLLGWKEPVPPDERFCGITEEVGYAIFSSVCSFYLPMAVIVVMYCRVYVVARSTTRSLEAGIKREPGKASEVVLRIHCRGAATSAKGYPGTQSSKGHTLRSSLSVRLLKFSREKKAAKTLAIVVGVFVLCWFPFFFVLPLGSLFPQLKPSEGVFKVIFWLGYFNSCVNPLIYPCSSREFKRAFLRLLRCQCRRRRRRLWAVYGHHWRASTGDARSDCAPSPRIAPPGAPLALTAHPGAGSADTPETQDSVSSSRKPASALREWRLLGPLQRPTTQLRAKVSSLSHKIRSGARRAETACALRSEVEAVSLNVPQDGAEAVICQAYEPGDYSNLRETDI
T1 sequence (P43140 whole entry): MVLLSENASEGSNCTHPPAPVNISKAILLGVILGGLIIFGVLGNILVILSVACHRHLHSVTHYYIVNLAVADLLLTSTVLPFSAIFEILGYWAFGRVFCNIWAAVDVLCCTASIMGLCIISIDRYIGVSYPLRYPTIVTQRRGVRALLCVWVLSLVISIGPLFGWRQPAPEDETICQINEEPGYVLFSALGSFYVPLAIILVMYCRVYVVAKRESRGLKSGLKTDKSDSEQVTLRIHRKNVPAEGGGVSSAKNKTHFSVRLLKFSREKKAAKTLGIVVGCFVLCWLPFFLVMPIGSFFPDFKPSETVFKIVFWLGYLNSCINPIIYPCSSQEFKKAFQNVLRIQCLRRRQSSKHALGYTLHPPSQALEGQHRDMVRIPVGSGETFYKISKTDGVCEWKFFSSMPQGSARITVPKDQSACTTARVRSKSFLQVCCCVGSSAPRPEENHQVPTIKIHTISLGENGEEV
The experiment in a line: Ability to inhibit [3H]WB-4101 binding to rat cortical alpha-1-adrenergic receptor. It is filed as protein assay.

The species named for experiment [2] is Rattus norvegicus. The experiment in a line: Inhibition of the rat conditioned avoidance response, CAR (Tranquilizing activity, peroral). Format: functional. As to conditions: po.
Experiment [3] relates to Rattus norvegicus. The experiment in a line: Ability to reverse trifluoperazine-induced catalepsy in rat (po); IA = Compound induced catalepsy. Format: functional, organism-based.
Experiment [4] concerns Rattus norvegicus. Briefly: In vivo inhibition of apomorphine (APO) induced stereotypy in rats (po). Format: functional.
The subject of experiment [5] is Rattus norvegicus. Briefly: Induction of catalepsy in rat (po).
For experiment [6], the system named is Rattus norvegicus. Briefly: Ability to reverse trifluoperazine-induced catalepsy in rat (po). It is filed as functional.

On to `O=C1SC2(CCCC2)C(=O)N1CCCCN1CCN(c2ncccc2Cl)CC1`, for which the IC50 at D(2) dopamine receptor came out at 160 nM; in experiment [1], 19.9 nM. The values for the ED50 in the experiment listed under Rattus norvegicus [2] and in the experiment with Rattus norvegicus [4] were 66.9 mg/kg and 50 mg/kg, respectively. The ED50 entry with Rattus norvegicus [3] is “inactive”.
At D(2) dopamine receptor, `Nc1cccnc1N1CCN(CCCCN2C(=O)SC3(CCCC3)C2=O)CC1` registered a concentration for half-maximal inhibition (IC50) of over 1000 nM. Further, the ED50 in the experiment listed under Rattus norvegicus [2] was over 100 mg/kg. Besides, in the experiment on Rattus norvegicus [3], the ED50 entry was “inactive”.
Turning to `COC(=O)c1cccnc1N1CCN(CCCCN2C(=O)CC(C)(C)CC2=O)CC1`, the IC50 at D(2) dopamine receptor is over 1000 nM; in experiment [1] it was 36.9 nM. Besides, the 50% effective dose (ED50) in the experiment filed under Rattus norvegicus [2] turned out to be 57 mg/kg; in the experiment with Rattus norvegicus [5], 228 mg/kg; in the experiment with Rattus norvegicus [4], 69.2 mg/kg.
Regarding `CC1(C)CC(=O)N(CCCCN2CCN(c3ncccc3Cl)CC2)C(=O)C1`, at D(2) dopamine receptor, the IC50 turned out to be 360 nM. Moreover, the ED50 in the experiment filed under Rattus norvegicus [2] came out at 25.9 mg/kg; with Rattus norvegicus [5], 104 mg/kg.
On to `COc1cccnc1N1CCN(CCCCN2C(=O)SC3(CCCC3)C2=O)CC1`, for which, on D(2) dopamine receptor, the IC50 stood at 79 nM. The median effective dose (ED50) is 18.8 mg/kg in the experiment listed under Rattus norvegicus [2] and under 57 mg/kg in the experiment on Rattus norvegicus [4]. Besides, the ED50 entry in the experiment with Rattus norvegicus [3] was “inactive”.
With `O=Cc1cccnc1N1CCN(CCCCN2C(=O)SC3(CCCC3)C2=O)CC1`, the IC50 at D(2) dopamine receptor came to 130 nM; in experiment [1], 9.6 nM. In addition, the ED50 in the experiment listed under Rattus norvegicus [2] was 60 mg/kg; in the experiment with Rattus norvegicus [6], 12.9 mg/kg; in the experiment with Rattus norvegicus [4], 48 mg/kg.
As for `N#Cc1cccnc1N1CCN(CCCCN2C(=O)SC3(CCCC3)C2=O)CC1`, the values for the IC50 (at D(2) dopamine receptor; in experiment [1]) were 34 nM and 35 nM, respectively. Also, the ED50 in the experiment listed under Rattus norvegicus [2] was determined as 38 mg/kg; in the experiment on Rattus norvegicus [6], 9.2 mg/kg; with Rattus norvegicus [4] it was 29.3 mg/kg.
`CO/N=C\c1cccnc1N1CCN(CCCCN2C(=O)SC3(CCCC3)C2=O)CC1`: the results for the IC50 (at D(2) dopamine receptor; in experiment [1]) were 428 nM and 67.4 nM, respectively. In the experiment filed under Rattus norvegicus [2], this molecule had an ED50 of 71.3 mg/kg. Besides, the ED50 entry in the experiment on Rattus norvegicus [3] was “inactive”.
Regarding `CC1(C)CC(=O)N(CCCCN2CCN(c3ncccc3-c3ccccc3)CC2)C(=O)C1`, the IC50 at D(2) dopamine receptor stood at 109 nM. Further, the median effective dose (ED50) in the experiment filed under Rattus norvegicus [2] amounted to 67.6 mg/kg; in the experiment on Rattus norvegicus [5], 90.8 mg/kg.
Consider `Cc1cccnc1N1CCN(CCCCN2C(=O)CC(C)(C)CC2=O)CC1`, for which, on D(2) dopamine receptor, the half-inhibitory concentration (IC50) is over 1000 nM. Moreover, the ED50 in the experiment filed under Rattus norvegicus [2] is 42.1 mg/kg; in the experiment on Rattus norvegicus [5], over 200 mg/kg; with Rattus norvegicus [4], over 100 mg/kg.
As for `O=C1CSC(=O)N1CCCCN1CCN(c2ccccn2)CC1`, the IC50 on D(2) dopamine receptor was over 1000 nM. The ED50 in the experiment filed under Rattus norvegicus [2] was found to be 45.8 mg/kg. Further, the ED50 result in the experiment with Rattus norvegicus [3] is “inactive”.
The molecule `O=C1SC2(CCCC2)C(=O)N1CCCCN1CCN(c2ncccc2-c2ccccc2)CC1` gave a half-inhibitory concentration (IC50) at D(2) dopamine receptor of 236 nM. Moreover, the ED50 in the experiment filed under Rattus norvegicus [2] and in the experiment on Rattus norvegicus [4] was over 100 mg/kg throughout. The ED50 result in the experiment on Rattus norvegicus [3] was “inactive”.
In the case of `COc1cccc(N2CCN(CCCCN3C(=O)CC(C)(C)CC3=O)CC2)n1`, the IC50 was over 1000 nM at D(2) dopamine receptor and 68 nM in experiment [1]. Besides, the 50% effective dose (ED50) turned out to be 11.9 mg/kg in the experiment filed under Rattus norvegicus [2], 48 mg/kg with Rattus norvegicus [5] and 76.2 mg/kg in the experiment with Rattus norvegicus [4].
With `N#Cc1cccnc1N1CCN(CCCCN2C(=O)CSC2=O)CC1`, the figures for the IC50 (on D(2) dopamine receptor; in experiment [1]) were over 1000 nM and 39 nM, respectively. The ED50 in the experiment listed under Rattus norvegicus [2] was 15.8 mg/kg; in the experiment on Rattus norvegicus [4], over 100 mg/kg. Besides, the ED50 entry in the experiment with Rattus norvegicus [3] was “inactive”.
Turning to `O=C1SC2(CCCC2)C(=O)N1CCCCN1CCN(c2ccccn2)CC1`, the IC50 at D(2) dopamine receptor came out at 620 nM. Further, the ED50 in the experiment listed under Rattus norvegicus [2] is 20.8 mg/kg; in the experiment with Rattus norvegicus [4], over 95 mg/kg. Besides, the ED50 entry with Rattus norvegicus [3] is “inactive”.
Regarding `O=C1SC2(CCCC2)C(=O)N1CCCCN1CCN(c2ncccc2[N+](=O)[O-])CC1`, the values for the IC50 (at D(2) dopamine receptor; in experiment [1]) were 69 nM and 34.1 nM, respectively. Besides, the ED50 in the experiment listed under Rattus norvegicus [2] was found to be 25.3 mg/kg; in the experiment with Rattus norvegicus [6], 44.2 mg/kg; in the experiment on Rattus norvegicus [4] it was 43.6 mg/kg.
On to `CN1CCN(C2=Nc3cc(Cl)ccc3Nc3ccccc32)CC1`, for which the ED50 entry in the experiment with Rattus norvegicus [3] was “inactive”.
`Cc1nnc(-c2cccnc2N2CCN(CCCCN3C(=O)CC4(CCCC4)CC3=O)CC2)o1` displayed a concentration for half-maximal inhibition (IC50) on D(2) dopamine receptor of 610 nM. For the same molecule, the 50% effect level in the experiment listed under Rattus norvegicus [2] (ED50) was put at a dose of 70.9 mg/kg.
With `Cc1cccnc1N1CCN(CCCCN2C(=O)SC3(CCCC3)C2=O)CC1`, the IC50 at D(2) dopamine receptor was found to be 630 nM. In addition, the ED50 is 46.4 mg/kg in the experiment filed under Rattus norvegicus [2] and over 50 mg/kg in the experiment with Rattus norvegicus [4]. The ED50 entry in the experiment on Rattus norvegicus [3] is “inactive”.
Consider `O=Cc1cccnc1N1CCN(CCCCN2C(=O)COCC2=O)CC1`, for which, at D(2) dopamine receptor, the IC50 was over 1000 nM. The same molecule gave an ED50 in the experiment listed under Rattus norvegicus [2] of over 100 mg/kg.
For `COC(=O)c1cccnc1N1CCN(CCCCN2C(=O)SC3(CCCC3)C2=O)CC1`, the IC50 was determined as 138 nM on D(2) dopamine receptor and 7.8 nM in experiment [1]. Moreover, the figures for the ED50 in the experiment listed under Rattus norvegicus [2], in the experiment on Rattus norvegicus [6] and in the experiment on Rattus norvegicus [4] were 29.8 mg/kg, 5.05 mg/kg and 50.2 mg/kg, respectively.
For the molecule `O=C1COCC(=O)N1CCCCN1CCN(c2ncccc2-c2ccccc2)CC1`, the results for the concentration for half-maximal inhibition (IC50) (on D(2) dopamine receptor; in experiment [1]) were over 41 nM and 16 nM, respectively. Besides, the ED50 is over 100 mg/kg in the experiment listed under Rattus norvegicus [2] and over 63 mg/kg with Rattus norvegicus [4].
Take `O=C1COCC(=O)N1CCCCN1CCN(c2ncccc2[N+](=O)[O-])CC1`: the IC50 on D(2) dopamine receptor was over 1000 nM; in experiment [1], 38.3 nM. In addition, the ED50 worked out at 55 mg/kg in the experiment filed under Rattus norvegicus [2] and 220 mg/kg in the experiment with Rattus norvegicus [5].
For `O=C1COCC(=O)N1CCCCN1CCN(c2ncccc2Cl)CC1`, the concentration for half-maximal inhibition (IC50) on D(2) dopamine receptor was over 1000 nM; in experiment [1] it was 16 nM. Moreover, the 50% effective dose (ED50) in the experiment filed under Rattus norvegicus [2] is 59.8 mg/kg; in the experiment with Rattus norvegicus [4], over 63 mg/kg.
On to `COc1cccc(N2CCN(CCCCN3C(=O)SC4(CCCC4)C3=O)CC2)n1`, for which the IC50 at D(2) dopamine receptor was over 1000 nM. Moreover, the ED50 in the experiment listed under Rattus norvegicus [2] is 35.9 mg/kg; in the experiment with Rattus norvegicus [4], over 100 mg/kg. In the experiment on Rattus norvegicus [3], the ED50 result is “inactive”.
On to `Cc1cccnc1N1CCN(CCCCN2C(=O)CC3(CCCC3)CC2=O)CC1`, for which the IC50 at D(2) dopamine receptor came to 476 nM. Also, the ED50 in the experiment listed under Rattus norvegicus [2] is 46.4 mg/kg; with Rattus norvegicus [5] it was over 186 mg/kg.
